From paper PMC10137179, “Assessment of Covalently Binding Warhead Compounds in the Validation of the Cytomegalovirus Nuclear Egress Complex as an Antiviral Target” (Cells, 2023)
Where two headings read alike, the source gives them in different places.

What was measured:
[1] = test system: HCMV ∆UL50-ΣUL53; assay: qPCR-based replication assay, HCMV ∆UL50-ΣUL53 in HFF-UL50 cells; type: cell-based
Method: The viral genome copy number in cell culture supernatants was determined by IE1-specific quantitative real-time PCR (qPCR) as described previously. […] For the qPCR reactions, aliquots of infected-cell supernatants were incubated with proteinase K (Sigma-Aldrich, St. Louis, MO, USA) at 56 °C for 1 h in order to release the viral DNA. After a denaturation step at 95 °C for 5 min, the DNA samples were optionally stored at 4 °C or directly used for qPCR, as performed in a 25 µL reaction mixture containing 5 µL of either the sample or the standard DNA solution. Additional components of the reaction mixture were 12.5 µL 2× TaqMan PCR Mastermix (Applied Biosystems, Waltham, MA, USA), 7.5 pmol of each primer (5′-[…]-3′) and 5′-[…]-3′) and 5 pmol probe directed against the HCMV MIE region exon 4 (5′-[…]-3′), which was labeled with 6-carboxyfluorescein reporter dye and 6-carboxytetramethylrhodamine quencher dye. The DNA standard for quantification was prepared by serial dilutions of an MIE-inserted plasmid. The thermal cycling conditions consisted of two initial steps of 2 min at 50 °C and 10 min at 95 °C followed by 40 amplification cycles (15 s at 95 °C, 1 min 60 °C). Reactions were performed with an ABI Prism 7700 sequence detector (Applied Biosystems, Waltham, MA, USA).
To this end, the conditional expression system of the HCMV ΔUL50-ΣUL53 recombinant was applied. […] The relative differences in viral replication efficiencies, under these four chosen conditions, were normalized by two means, namely, by using the same conditions in the DMSO control panel (±S, ±D) and by evaluating viral replication in percentage values (% DMSO).
HFF-UL50 cells were cultivated in 96-well plates and infected with (A,B) HCMV ∆UL50-ΣUL53, with (C) parental HCMV AD169 (WT), using adjusted genome copy numbers, or remained uninfected (mock). Viral input was adjusted to 1 × 10^5 copies per well. […] Dox was refreshed every second day. At 14 d p.i., supernatants were harvested, and viral genome equivalents were determined using HCMV IE1-specific qPCR. Each condition was examined in biological quadruplicates; mean values ± SDs are shown. […] Statistical analysis was performed using ordinary one-way ANOVA and post hoc Tukey testing; **** p ≤ 0.0001; n.s., not significant.

[2] = biological target: T1, pUL97–cyclin H interaction (LgBiT::UL97(231–280)-Flag + SmBiT::CycH-HA) (UniProt P16788+P51946); assay: NanoBiT specificity control, pUL97–cyclin H; type: cell-based, HCMV; details: ibrutinib 3.75–30 µM
T1 construct: open reading frames coding for HCMV pUL97 (amino acids 231–280); expressed in transfected cells; host or cells: 293T
T1 sequence (P16788 231-280 limits assumed): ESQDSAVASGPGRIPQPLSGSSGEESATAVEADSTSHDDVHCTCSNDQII
T1 sequence (P51946 1-323): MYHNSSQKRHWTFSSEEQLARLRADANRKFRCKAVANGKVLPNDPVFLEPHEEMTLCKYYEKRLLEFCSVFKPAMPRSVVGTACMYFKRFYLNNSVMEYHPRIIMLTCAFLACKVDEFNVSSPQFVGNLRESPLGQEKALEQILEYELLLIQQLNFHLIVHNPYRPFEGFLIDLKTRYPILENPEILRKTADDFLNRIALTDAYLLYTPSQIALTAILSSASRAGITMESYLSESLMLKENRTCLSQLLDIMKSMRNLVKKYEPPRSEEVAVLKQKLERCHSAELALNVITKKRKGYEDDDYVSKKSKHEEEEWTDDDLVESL

## C=CC(=O)N1CCC[C@@H](n2nc(-c3ccc(Oc4ccccc4)cc3)c3c(N)ncnc32)C1 [ibrutinib]
[1]; +S+D (Shield-1 1 µM, Dox 500 ng/mL), 14 d p.i., qPCR, two biological replicates
  EC50: 4.8 ± 11.1 µM
[1]; Human betaherpesvirus 5, 336 h, +S+D (Shield-1 1 µM, Dox 500 ng/mL), 14 d p.i., qPCR, two biological replicates
  EC50: 4 ± 3.6 µM
[1]; Human betaherpesvirus 5, 336 h, +S-D (no pUL50 induction), 14 d p.i., qPCR
  EC50: > 32 µM
[1]; Human betaherpesvirus 5, 336 h, -S+D (no pUL53 stabilization), 14 d p.i., qPCR
  EC50: > 32 µM
[1]; Human betaherpesvirus 5, 336 h, -S-D (neither core NEC protein), 14 d p.i., qPCR, two replicates
  EC50: > 32 µM
[1]; Human betaherpesvirus 5, read-out: mean EC50, ∆UL50-ΣUL53, +S+D, mean of replicates
  EC50: 4.4 µM
[2]
  effect on pUL97–cyclin H NanoBiT interaction (in words): inactive
